The results in this text go back to patent US8822449B2, “Substituted aminoindanes and analogs thereof, and the pharmaceutical use thereof” (Sanofi, priority 2008, dated 2014).

The target of the test is T1, sodium-proton exchanger of subtype 3 (NHE3) (Homo sapiens, UniProt P48764).
T1 construct: expressed in transfected cells
T1 sequence (P48764 26-834): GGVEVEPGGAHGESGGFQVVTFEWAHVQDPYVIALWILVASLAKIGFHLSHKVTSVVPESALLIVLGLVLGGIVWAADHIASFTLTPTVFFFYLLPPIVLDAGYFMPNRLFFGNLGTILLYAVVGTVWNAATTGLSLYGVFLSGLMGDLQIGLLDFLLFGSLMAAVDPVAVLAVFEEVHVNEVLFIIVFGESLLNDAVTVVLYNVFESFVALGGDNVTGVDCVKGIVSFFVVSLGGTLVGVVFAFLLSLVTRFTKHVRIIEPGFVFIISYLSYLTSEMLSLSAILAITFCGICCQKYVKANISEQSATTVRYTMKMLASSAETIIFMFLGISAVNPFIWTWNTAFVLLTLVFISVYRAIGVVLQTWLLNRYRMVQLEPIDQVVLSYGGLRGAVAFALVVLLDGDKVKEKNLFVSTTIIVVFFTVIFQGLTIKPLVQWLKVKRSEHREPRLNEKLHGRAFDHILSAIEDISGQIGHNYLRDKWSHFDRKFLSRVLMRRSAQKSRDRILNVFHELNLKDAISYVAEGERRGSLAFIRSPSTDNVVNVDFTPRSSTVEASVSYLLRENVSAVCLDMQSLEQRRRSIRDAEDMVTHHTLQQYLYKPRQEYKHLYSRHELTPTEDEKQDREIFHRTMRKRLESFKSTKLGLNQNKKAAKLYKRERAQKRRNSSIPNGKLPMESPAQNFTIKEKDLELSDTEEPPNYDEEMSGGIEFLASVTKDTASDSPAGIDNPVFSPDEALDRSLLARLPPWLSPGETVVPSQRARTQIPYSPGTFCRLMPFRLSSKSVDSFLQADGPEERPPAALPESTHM
Put plainly: Recovery of intracellular pH (pHi) after acidification in LAP1 cells stably expressing NHE3 (BCECF fluorescence, FLIPR). The note with it: LAP1 cells stably expressing NHE3; pH recovery after acidification; range 1 is % inhibition at 10 μM; read-out: Activity range (inhibitory effect on NHE3). It is filed as cell-based.
With `CN1CCCN([C@H]2Cc3c(Cl)cc(Cl)cc3[C@@H]2Oc2ccc(S(C)(=O)=O)cc2)CC1` (racemic) [Example 279, 1-[rac-trans-(1,2)-4,6-dichloro-1-(4-methanesulfonylphenoxy)indan-2-yl]-4-methyl-[1,4]diazepane], the IC50 is less than 1000 nM.

Regarding `N#Cc1ccc(O[C@H]2c3ccccc3C[C@@H]2CN2CCCC2)cc1Cl` (racemic) [Example 391, 2-chloro-4-(2-pyrrolidin-1-ylmethylindan-1-yloxy)benzonitrile], the inhibition at 10 µM is 20 to 50%.

On to `Cc1nnc(C)n1-c1ccc(O[C@H]2c3ccccc3C[C@@H]2N2CCCC2)c(Cl)c1` [Example 491, 4-[3-chloro-4-(trans-(1S,2S)-2-pyrrolidin-1-ylindan-1-yloxy)phenyl]-3,5-dimethyl-4H-[1,2,4]triazole], for which the IC50 was less than 1000 nM.

Take `N[C@@H]1CCCN([C@@H]2Cc3ccccc3[C@H]2Oc2cccc(CN3CCCCC3)c2)C1` (racemic) [Example 58, (R)-1-[rac-trans-(1,2)-1-(3-piperidin-1-ylmethylphenoxy)indan-2-yl]piperidin-3-ylamine]: the IC50 was in the range of 1000 to 10000 nM.

Turning to `COC(=O)c1ccc(O[C@H]2c3ccccc3CC[C@@H]2N2CCC[C@H](N)C2)c(Cl)c1` (racemic) [Example 531, 4-[rac-trans-(1,2)-2-((S)-3-aminopiperidin-1-yl)-1,2,3,4-tetrahydronaphthalen-1-yloxy]-3-chlorobenzoic acid methyl ester], the inhibition at 10 µM lay in the range of 20 to 50%.

On to `Cc1noc(C)c1-c1ccc(O[C@H]2c3ccccc3C[C@@H]2N2CCCC2)cc1` [Example 407, 3,5-dimethyl-4-[4-(trans-(1S,2S)-2-pyrrolidin-1-ylindan-1-yloxy)phenyl]-isoxazole], for which the IC50 is less than 1000 nM.

Turning to `NCC1CCN([C@@H]2Cc3ccccc3[C@H]2Oc2ccc3[nH]cc(CC(N)=O)c3c2)C1` (mixture of isomers) [Example 386, 2-{5-[rac-trans-(1,2)-2-(3-aminomethylpyrrolidin-1-yl)indan-1-yloxy]-1H-indol-3-yl}acetamide], the IC50 was 1000 to 10000 nM.

`FC(F)(F)c1cnccc1O[C@H]1c2ccccc2C[C@@H]1CN1CCCC1` (racemic) [Example 462, 4-(2-pyrrolidin-1-ylmethylindan-1-yloxy)-3-trifluoromethylpyridine]: the inhibition at 10 µM was in the range of 20 to 50%.

For the molecule `Cn1ccn(-c2cc(O[C@H]3c4cc(Cl)cc(Cl)c4C[C@@H]3N3CC[C@@H](O)C3)ccc2Cl)c1=O` [Example 310, 1-{2-chloro-5-[(1S,2S)-4,6-dichloro-2-((R)-3-hydroxypyrrolidin-1-yl)indan-1-yloxy]phenyl}-3-methyl-1,3-dihydroimidazol-2-one], the inhibition at 10 µM lay in the range of 20 to 50%.

As to `N[C@@H]1CCCN([C@H]2CCc3ccccc3[C@@H]2Oc2ccc(N3CCNCC3)cc2)C1` (racemic) [Example 75, (R)-1-[rac-trans-(1,2)-1-(4-piperazin-1-ylphenoxy)-1,2,3,4-tetrahydronaphthalen-2-yl]piperidin-3-ylamine], the inhibition at 10 µM was 20 to 50%.

As for `CS(=O)(=O)c1ccc(O[C@H]2c3cc(F)cc(F)c3C[C@@H]2N2CC[C@@H](O)C2)cc1` [Example 28, (R)-1-[(1S,2S)-4,6-difluoro-1-(4-methanesulfonylphenoxy)indan-2-yl]pyrrolidin-3-ol], the IC50 lay in the range of 1000 to 10000 nM.

As for `CN1CCC2CN([C@H]3Cc4c(Cl)cc(Cl)cc4[C@@H]3Oc3ccc(S(C)(=O)=O)cc3)CC21` (single isomer, unassigned) [Example 581], the IC50 is less than 1000 nM.

In the case of `CS(=O)(=O)c1nccn1-c1ccc(O[C@H]2c3cc(Cl)cc(F)c3C[C@@H]2NC2CCCC2)c(F)c1` [Example 754, {trans-(1S,2S)-6-Chloro-4-fluoro-1-[2-fluoro-4-(2-methanesulfonyl-imidazol-1-yl)-phenoxy]-indan-2-yl}-cyclopentyl-amine], the IC50 is less than 1000 nM.

In the case of `NCC1CCN([C@@H]2Cc3ccccc3[C@H]2Oc2cccc(C(N)=O)c2)C1` (mixture of isomers) [Example 414, 3-[rac-trans-(1,2)-2-(3-aminomethylpyrrolidin-1-yl)indan-1-yloxy]benzamide], the IC50 is 1000 to 10000 nM.

Regarding `N#Cc1ccc(O[C@@H]2c3ccccc3C[C@H]2N2CCC[C@@H](N)C2)c(Cl)c1` (racemic) [Example 523, 4-[rac-trans-(1,2)-2-((R)-3-aminopiperidin-1-yl)indan-1-yloxy]-3-chlorobenzonitrile], the IC50 was in the range of 1000 to 10000 nM.

In the case of `CS(=O)(=O)c1ccc(O[C@H]2c3cc(Cl)cc(Cl)c3C[C@@H]2N2CCNC(C(F)(F)F)C2)cc1` (mixture of isomers) [Example 301, 1-[trans-(1S,2S)-4,6-dichloro-1-(4-methanesulfonylphenoxy)indan-2-yl]-3-trifluoromethylpiperazine], the inhibition at 10 µM was 20 to 50%.

Turning to `N[C@H]1CCCN([C@H]2CCc3ccccc3[C@@H]2Oc2ccnc(Cl)c2)C1` (racemic) [Example 153, (S)-1-[rac-trans-(1,2)-1-(2-chloropyridin-4-yloxy)-1,2,3,4-tetrahydronaphthalen-2-yl]piperidin-3-ylamine], the inhibition at 10 µM was in the range of 20 to 50%.

On to `O=C1CCCN1c1ccc(O[C@H]2c3cc(Cl)cc(Cl)c3C[C@@H]2N2CC[C@@H](O)C2)c(Cl)c1` [Example 321, 1-{3-chloro-4-[(1S,2S)-4,6-dichloro-2-((R)-3-hydroxypyrrolidin-1-yl)indan-1-yloxy]phenyl}pyrrolidin-2-one], for which the IC50 was less than 1000 nM.

Regarding `NS(=O)(=O)c1ccc(O[C@H]2c3c(Cl)cccc3C[C@@H]2N2CCCC2)cc1` (racemic) [Example 476, 4-(rac-trans-(1,2)-7-chloro-2-pyrrolidin-1-ylindan-1-yloxy)benzenesulfonamide], the IC50 fell in the range of 1000 to 10000 nM.

Regarding `N#Cc1ccc(O[C@@H]2c3ccccc3C[C@H]2N2CCC(CN)C2)c(Cl)c1` (mixture of isomers) [Example 541, 4-[rac-trans-(1,2)-2-(3-aminomethylpyrrolidin-1-yl)indan-1-yloxy]-3-chlorobenzonitrile], the IC50 lay within 1000 to 10000 nM.

On to `CN(C)[C@H]1Cc2c(Cl)cc(Cl)cc2[C@@H]1Oc1ccc(-n2ccnc2)cc1` (racemic) [Example 216, [rac-trans-(1,2)-4,6-dichloro-1-(4-imidazol-1-ylphenoxy)indan-2-yl]dimethylamine], for which the inhibition at 10 µM fell in the range of 20 to 50%.

Take `CC(=O)Nc1cccc(O[C@H]2c3cc(Cl)cc(Cl)c3C[C@@H]2N2CC[C@@H](CO)C2)c1` [Example 695, N-{3-[trans-(1S,2S)-4,6-dichloro-2-((R)-3-hydroxymethylpyrrolidin-1-yl)indan-1-yloxy]phenyl}acetamide]: the IC50 is 1000 to 10000 nM.

Take `CS(=O)(=O)c1ccc(O[C@H]2c3cc(Cl)ccc3C[C@@H]2N2CCN(CCO)CC2)cc1` (racemic) [Example 384, 2-{4-[rac-trans-(1,2)-6-chloro-1-(4-methanesulfonylphenoxy)indan-2-yl]piperazin-1-yl}-ethanol]: the inhibition at 10 µM fell in the range of 20 to 50%.

For `NC1CCN([C@@H]2Cc3ccccc3[C@H]2Oc2ccnc3ccccc23)C1` (mixture of isomers) [Example 275, 1-[rac-trans-(1,2)-1-(quinolin-4-yloxy)indan-2-yl]pyrrolidin-3-ylamine], the IC50 was in the range of 1000 to 10000 nM.

As for `NS(=O)(=O)c1ccc(O[C@H]2c3cc(Cl)cc(Cl)c3C[C@@H]2N2CC[C@@H](O)C2)cc1` [Example 743, 4-[trans-(1S,2S)-4,6-Dichloro-2-((R)-3-hydroxy-pyrrolidin-1-yl)-indan-1-yloxy]-benzenesulfonamide], the IC50 is less than 1000 nM.

For `CC(=O)Nc1cccc(O[C@H]2c3cc(F)cc(Cl)c3C[C@@H]2N2CCCC2)c1` (racemic) [Example 651, N-[3-(rac-trans-(1,2)-4-chloro-6-fluoro-2-pyrrolidin-1-ylindan-1-yloxy)phenyl]acetamide], the IC50 lay within 1000 to 10000 nM.

As for `CC1(C)NC(=O)N(c2ccc(Cl)c(O[C@H]3c4cc(Cl)cc(Cl)c4C[C@@H]3N3CC[C@@H](O)C3)c2)C1=O` [Example 431, 3-{4-chloro-3-[(1S,2S)-4,6-dichloro-2-((R)-3-hydroxypyrrolidin-1-yl)indan-1-yloxy]phenyl}-5,5-dimethylimidazolidine-2,4-dione], the IC50 was in the range of 1000 to 10000 nM.

On to `CCc1ccc(O[C@@H]2c3ccccc3C[C@H]2N2C[C@H]3CNC[C@H]3C2)c(C(C)(C)C)c1` (racemic) [Example 12, 2-[rac-trans-(1,2)-1-(2-tert-butyl-4-ethylphenoxy)indan-2-yl]octahydropyrrolo[3,4-c]pyrrole], for which the IC50 was less than 1000 nM.

For the molecule `NS(=O)(=O)c1ccc(OC2c3ccccc3CC2N2CCCC2)c(Cl)c1Cl` (racemic) [Example 357, 2,3-dichloro-4-(rac-trans-(1,2)-2-pyrrolidin-1-ylindan-1-yloxy)benzenesulfonamide], the IC50 was less than 1000 nM.

`CS(=O)(=O)c1ccc(O[C@H]2c3ccccc3C[C@@H]2N2CCCC(NCC(F)(F)F)C2)cc1` (stereo partly drawn) [Example 219, {(R)-1-[trans-(1S,2S)-1-(4-methanesulfonylphenoxy)indan-2-yl]piperidin-3-yl}-(2,2,2-trifluoroethyl)amine]: the inhibition at 10 µM lay within 20 to 50%.
